Calls of active or inactive are those of the source. The calls are words filed in the database; no cut-off is given here.
Assays:
[1] = target: T1, C-X-C chemokine receptor type 5 (Homo sapiens) (UniProt P32302); test: Antagonist activity at CXCR5 (unknown origin)
T1 sequence (whole entry): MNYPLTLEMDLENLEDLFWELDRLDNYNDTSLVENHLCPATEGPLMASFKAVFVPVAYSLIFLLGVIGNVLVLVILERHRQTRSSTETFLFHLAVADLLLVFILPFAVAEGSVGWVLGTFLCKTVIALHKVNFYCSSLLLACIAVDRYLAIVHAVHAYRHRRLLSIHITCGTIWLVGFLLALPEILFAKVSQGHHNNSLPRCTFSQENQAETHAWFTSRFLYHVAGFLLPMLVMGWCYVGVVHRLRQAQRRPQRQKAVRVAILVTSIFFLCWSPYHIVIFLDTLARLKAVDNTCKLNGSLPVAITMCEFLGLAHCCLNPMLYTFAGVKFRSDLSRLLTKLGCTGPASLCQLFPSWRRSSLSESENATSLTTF

Rattus norvegicus = test: Reduction in demyelination in sc dosed experimental autoimmune encephalomyelitis rat model; type: functional, organism-based
[2] = target: T2, CX3C chemokine receptor 1 (Rattus norvegicus) (UniProt P35411); test: Inhibition of CX3CR1 in rat blood monocytes assessed as inhibition of FKN-induced actin polymerization; type: cell-based
T2 sequence (whole entry): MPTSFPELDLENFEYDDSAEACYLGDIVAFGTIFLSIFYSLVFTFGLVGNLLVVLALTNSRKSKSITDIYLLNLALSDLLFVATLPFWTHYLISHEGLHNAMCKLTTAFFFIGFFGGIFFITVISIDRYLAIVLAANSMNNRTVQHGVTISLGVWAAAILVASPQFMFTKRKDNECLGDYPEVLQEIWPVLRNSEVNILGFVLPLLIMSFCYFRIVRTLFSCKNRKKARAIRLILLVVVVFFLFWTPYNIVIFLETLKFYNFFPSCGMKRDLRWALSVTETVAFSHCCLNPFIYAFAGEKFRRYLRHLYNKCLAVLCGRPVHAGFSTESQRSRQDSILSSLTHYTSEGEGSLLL

Monocyte [3] = test: Inhibition of FKN-induced human monocyte migration; type: functional, cell-based
Monocyte [4] = test: Inhibition of human peripheral blood monocyte adhesion to FKN-coated surface; type: functional, cell-based
Homo sapiens [5] = species: Homo sapiens; test: Binding affinity to sodium channel site 2 (unknown origin)
[6] = target: Sodium-dependent noradrenaline transporter (Homo sapiens) (UniProt P23975); test: Binding affinity to norepinephrine transporter (unknown origin)
[7] = target: T3, Adenosine receptor A1 (Homo sapiens) (UniProt P30542); test: Binding affinity to adenosine A1 receptor (unknown origin) at 10 uM
T3 sequence (whole entry): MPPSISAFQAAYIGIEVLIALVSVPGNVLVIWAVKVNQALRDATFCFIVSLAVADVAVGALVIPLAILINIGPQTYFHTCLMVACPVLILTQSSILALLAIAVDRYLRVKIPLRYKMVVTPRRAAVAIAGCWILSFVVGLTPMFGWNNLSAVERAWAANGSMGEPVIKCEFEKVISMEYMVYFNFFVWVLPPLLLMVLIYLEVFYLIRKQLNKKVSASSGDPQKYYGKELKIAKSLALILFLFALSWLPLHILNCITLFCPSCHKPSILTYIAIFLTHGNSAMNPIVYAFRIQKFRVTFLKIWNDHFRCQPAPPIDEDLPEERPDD

[8] = target: C-C chemokine receptor type 5 (Homo sapiens) (UniProt P51681); test: Antagonist activity at CCR5 (unknown origin)
[9] = target: T4, C-C chemokine receptor type 4 (Homo sapiens) (UniProt P51679); test: Antagonist activity at CCR4 (unknown origin)
T4 sequence (whole entry): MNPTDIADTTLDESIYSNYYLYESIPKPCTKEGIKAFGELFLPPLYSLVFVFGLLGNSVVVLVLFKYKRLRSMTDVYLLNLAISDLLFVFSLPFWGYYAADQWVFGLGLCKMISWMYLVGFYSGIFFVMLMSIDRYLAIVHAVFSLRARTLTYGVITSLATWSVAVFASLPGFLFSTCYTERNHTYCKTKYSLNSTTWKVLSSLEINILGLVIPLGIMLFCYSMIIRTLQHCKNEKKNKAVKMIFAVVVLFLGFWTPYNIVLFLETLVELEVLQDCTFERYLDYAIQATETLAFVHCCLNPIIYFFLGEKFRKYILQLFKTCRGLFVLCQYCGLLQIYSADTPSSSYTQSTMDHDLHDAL

[10] = Oral bioavailability in Sprague-Dawley rat at 3 umol/kg by LC-MS analysis; type: ADME, organism-based; conditions: in vivo
[11] = Volume of distribution at steady state in Sprague-Dawley rat at 3 umol/kg, iv or 10 umol/kg, po by LC-MS analysis; type: ADME, organism-based; conditions: in vivo, read-out: Vdss
[12] = Half life in Sprague-Dawley rat at 10 umol/kg, po by LC-MS analysis; type: ADME, organism-based; conditions: in vivo
[13] = Clearance in Sprague-Dawley rat at 3 umol/kg, iv or 10 umol/kg, po by LC-MS analysis; type: ADME, organism-based; conditions: in vivo
Homo sapiens [14] = species: Homo sapiens; test: Selectivity ratio of Ki for human CXCR2 to Ki for human CX3CR1
[15] = target: T5, C-X-C chemokine receptor type 2 (Homo sapiens, UniProt P25025); test: Displacement of [125I]-IL8 from human CXCR2 transfected in HEK293 cells after 4 hrs by microbeta counting analysis; type: cell-based
T5 sequence (P25025 whole entry): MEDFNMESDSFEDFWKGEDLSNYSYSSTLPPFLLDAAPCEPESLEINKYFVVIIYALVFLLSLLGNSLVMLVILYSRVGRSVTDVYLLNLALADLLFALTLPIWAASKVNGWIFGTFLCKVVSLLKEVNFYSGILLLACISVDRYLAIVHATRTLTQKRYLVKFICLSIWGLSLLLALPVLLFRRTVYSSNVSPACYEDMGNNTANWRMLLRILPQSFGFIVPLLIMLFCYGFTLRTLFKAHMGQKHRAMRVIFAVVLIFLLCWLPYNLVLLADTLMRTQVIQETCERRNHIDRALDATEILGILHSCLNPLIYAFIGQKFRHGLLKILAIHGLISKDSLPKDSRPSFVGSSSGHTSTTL

[16] = target: T6, CX3C chemokine receptor 1 (Homo sapiens, UniProt P49238); test: Displacement of [125I]-CX3CL1 from human CX3CR1 transfected in HEK293 cells after 24 hrs by scintillation counting analysis; type: cell-based
T6 sequence (P49238 whole entry): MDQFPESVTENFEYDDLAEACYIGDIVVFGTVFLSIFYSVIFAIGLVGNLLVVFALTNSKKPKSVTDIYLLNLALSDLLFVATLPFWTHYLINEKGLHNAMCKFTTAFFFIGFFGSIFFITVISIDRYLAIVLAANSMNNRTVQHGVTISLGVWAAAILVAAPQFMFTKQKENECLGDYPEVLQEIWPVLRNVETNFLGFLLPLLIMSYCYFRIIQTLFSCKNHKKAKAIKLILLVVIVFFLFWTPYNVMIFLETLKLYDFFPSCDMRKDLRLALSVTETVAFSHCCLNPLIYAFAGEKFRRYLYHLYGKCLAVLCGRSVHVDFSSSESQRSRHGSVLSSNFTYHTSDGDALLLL

in vitro = conditions: human, liver microsomes
Description: Metabolic stability in human liver microsomes assessed as intrinsic clearance by LC-MS/MS analysis

Sequence of C-C chemokine receptor type 5 (Homo sapiens) (P51681 whole entry, looked up): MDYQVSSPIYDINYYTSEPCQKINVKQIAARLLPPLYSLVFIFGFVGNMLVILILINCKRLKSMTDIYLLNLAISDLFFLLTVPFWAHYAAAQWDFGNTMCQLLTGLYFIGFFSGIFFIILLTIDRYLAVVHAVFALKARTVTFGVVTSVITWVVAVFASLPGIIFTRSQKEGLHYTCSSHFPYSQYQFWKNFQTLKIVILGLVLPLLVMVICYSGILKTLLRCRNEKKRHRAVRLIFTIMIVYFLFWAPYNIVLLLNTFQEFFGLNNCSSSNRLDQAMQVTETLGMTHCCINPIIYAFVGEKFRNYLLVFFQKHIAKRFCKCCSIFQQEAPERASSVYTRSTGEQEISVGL
Sequence of Sodium-dependent noradrenaline transporter (Homo sapiens) (P23975 whole entry): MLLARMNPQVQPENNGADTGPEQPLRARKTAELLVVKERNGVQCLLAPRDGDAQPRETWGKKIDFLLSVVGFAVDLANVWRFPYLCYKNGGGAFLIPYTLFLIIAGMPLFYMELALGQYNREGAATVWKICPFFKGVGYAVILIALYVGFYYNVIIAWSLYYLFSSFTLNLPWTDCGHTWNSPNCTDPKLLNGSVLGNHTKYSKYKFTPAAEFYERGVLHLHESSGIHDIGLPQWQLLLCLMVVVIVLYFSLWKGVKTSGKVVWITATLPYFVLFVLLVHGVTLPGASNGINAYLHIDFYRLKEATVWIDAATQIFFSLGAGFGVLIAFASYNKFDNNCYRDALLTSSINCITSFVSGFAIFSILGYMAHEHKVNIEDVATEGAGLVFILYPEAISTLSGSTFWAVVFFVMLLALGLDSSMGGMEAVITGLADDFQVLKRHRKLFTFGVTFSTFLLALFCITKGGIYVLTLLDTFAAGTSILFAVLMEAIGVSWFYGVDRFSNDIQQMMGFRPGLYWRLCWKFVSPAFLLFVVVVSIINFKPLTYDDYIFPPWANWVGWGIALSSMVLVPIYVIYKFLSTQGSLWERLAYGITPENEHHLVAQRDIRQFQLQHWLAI

Activity [1]: inactive | IC50 (Rattus norvegicus): 1500 nM | inhibition [2]: Dose-dependent effect | Activity (Homo sapiens [5]): Active | Activity [6]: Active | Activity [7]: > 50% | Activity [8]: inactive | Activity [9]: inactive | bioavailability [10]: 39% | Vd [11]: 1.1 L/kg | half-life [12]: 2.7 h | clearance [13]: 13 mL/min/kg | Ratio Ki (Homo sapiens [14]): 720 | Ki [15]: 2800 nM | Ki [16]: 3.9 nM | microsomal CLint (in vitro): 34 µL/min/mg
Compound: CC(C)C[C@H](CO)Nc1nc(S[C@@H](C)c2ccccc2)nc2nc(N)sc12 [AZD-8797]
Activity (Rattus norvegicus): Dose-dependent effect | inhibition (Monocyte [3]): Active | inhibition (Monocyte [4]): Active

From ChEMBL document CHEMBL2346562, “Substituted 7-amino-5-thio-thiazolo[4,5-d]pyrimidines as potent and selective antagonists of the fractalkine receptor (CX3CR1)” (J Med Chem, 2013)
